Source: patent publication US12714711B2, “Salts of neuroceuticals and uses thereof” (priority 2020, dated 2026)
In brackets after ≈: the same amount, converted by molar mass.

Key:
[1] = Water solubility at 25° C.; conditions: for water solubility: 25° C.; for solubility: water, 25 °C
MK-801 treated mice = test: Open field test, MK-801 induced hyper-locomotion; conditions: for Open-field test effect (formula [formula] not readable) / Open-field test, anti-hyperactivity effect (formula [formula] not readable): acute oral; for locomotor activity in MK-801 treated mice: MK-801 0.2 mg/kg i.p.; for Open-field test, anti-hyperactivity effect (formula [formula] not readable): mice;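 for all read-outs here: adult male C57BL/6J mice, locomotion counted as total photobeam breaks over 60 minutes in an open field photobeam activity system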
Procedure: All mice were tested with open field task.
In this study, the mice were placed in a Plexiglas cage (37.5 cm×21.5 cm×18 cm) under 50-65 lux light intensity. Their spontaneous locomotor activities were measured for 60 minutes using the Photobeam Activity System (PAS)-open field (San Diego Instruments, San Diego, Calif., USA). The total number of photo beam breaks of each mouse was measured as an index of locomotor activity.
The schizophrenia-like behavior, MK801-induced hyperactivity, were tested by open field task.
All mice were tested in an open field task.
The schizophrenia-like behavior, NMDA-hypofunction-induced hyperactivity, were tested by open field task.
The amount of paliperidone administered to Groups 3 and 4 was equal. The schizophrenia-like behavior, MK801-induced hyperactivity, were tested by open field task.
The amount of paliperidone administered to Groups 3 and 4 was equal. The schizophrenia-like behavior, NMDA-hypofunction-induced hyperactivity, were tested by open field task.

in vivo = conditions: rat, po
Procedure: All animals used in this study were adult rats (at least 2.5 months of age).
Male Sprague-Dawley rats having a bodyweight between 250-300 g were randomly assigned to two groups. […] The chemicals were suspended in sesame oil and administrated by single oral gavage at 2 ml/kg. All rats were fasted overnight with free access to water before oral administration of the testing compositions. On the day of dosing, the blood samples were collected at 0 min (prior to dosing), and 0.25, 0.5, 1, 2, 4, 6, 8, and 24 hr post-dosing.
Blood samples were collected from rat jugular veins and transferred into tubes coated with sodium heparin. To obtain plasma, the blood samples were centrifuged at 2,500×g for 15 min at 4° C. and the supernatants were collected and kept frozen in a freezer at −80° C., until they were analyzed.
The plasma concentration of donepezil was determined by LC/MS. The chromatographic separation was carried out on a 5 μm EVO C8 100 Å LC column (100×4.6 mm, Kinetex®). The mobile phase was 0.1% formic acid in water and acetonitrile:methanol=8:2 set as gradient. Flow rate used was 0.3 mL/min. Column temperature was maintained at 40° C. and the injection volume was 30 μL.
The pharmacokinetic parameters were calculated using non-compartmental analysis (NCA) with WinNonlin to assess the systemic exposure of donepezil in rats.

mice = test: von Frey test, paw withdrawal threshold; assay type: in vivo, C57BL/6J male mice; conditions: for paw withdrawal threshold compared to vehicle control group / AUC values of von Frey pain threshold compared to vehicle control group / AUC of von Frey pain threshold relative to gabapentin group: mice, single oral dose; for paw withdrawal threshold compared to vehicle control group: gabapentin 20 mg/kg equivalent (salts 192, 106.02, 77.34 mg/kg), 15-180 min; for paw withdrawal threshold compared to vehicle control group / AUC values of von Frey pain threshold compared to vehicle control group: enriched TA 200 mg/kg; for AUC values of von Frey pain threshold compared to vehicle control group: gabapentin 20 mg/kg equivalent; for Pain threshold to time AUC after 120 min: von Frey test, acute oral, 20 mg/kg; for AUC of von Frey pain threshold relative to gabapentin group: same amount of gabapentin (20 mg/kg)
Procedure: The objective of this experiment was to assess the analgesic effects of gabapentin:enriched tannic acid salts in mice. The testing compounds were administrated to mice by oral gavage before von Frey test (a typical assay for pain sensation).
Mice used in this study were randomly assigned into six groups: • Group 1: Vehicle control • Group 2: Enriched TA (200 mg/kg) • Group 3: GBP (20 mg/kg) • Group 4: GBP:enriched TA 1:1 salt (192 mg/kg) • Group 5: GBP:enriched TA 2:1 salt (106.02 mg/kg) • Group 6: GBP:enriched TA 3:1 salt (77.34 mg/kg)
Each mouse in Groups 1-6 received a single, oral dose of 65% PEG400 in ddH2O, enriched tannic acid at 200 mg/kg, gabapentin at 20 mg/kg, gabapentin:enriched tannic acid 1:1 salt (192 mg/kg), gabapentin:enriched tannic acid 2:1 salt (106.02 mg/kg) and gabapentin:enriched tannic acid 3:1 salt (77.34 mg/kg). The amount of gabapentin administered to the mice in Groups 3 to 6 was the same.
Mice were habituated in individual transparent acrylic box on a wire-mesh floor for 30 min before testing. An electronic von Frey apparatus (Bioseb-EVF4S) was used to measure the paw withdrawal thresholds (g) of each mouse before drug administration (baseline) and at 15, 30, 60, 120 and 180 mins after drug administration.

[2] = Carr Index (USP 1174), flowability; assay type: physicochemical
[3] = GTT, dosage of quetiapine 20 mg/kg
Procedure: For the acute study, mice were randomly assigned into one of the five groups listed below. • Group 1: Vehicle control • Group 2: NA (3.77 mg/kg) • Group 3: Clz (10 mg/kg) • Group 4: Clz (10 mg/kg)+NA (3.77 mg/kg) • Group 5: Clz:NA 1:1 salt (13.77 mg/kg)
For the repeated dose study, two cohorts of mice were used. In cohort 1, mice were randomly assigned into one of the three groups listed below. • Group 1: Vehicle control • Group 2: Clz (10 mg/kg) • Group 3: Clz:NA 1:1 salt (13.77 mg/kg)
In cohort 2, the mice were randomly assigned into one of the three groups listed below. • Group 1: Vehicle control • Group 2: Clz (3 mg/kg) • Group 3: Clz:NA 1:1 salt (4.13 mg/kg)
To assess glucose tolerance, mice were fasted overnight on day 18 (for cohort 1) and on day 35 (for cohort 2), and their blood glucose response to i.p. administration of glucose (2 g/kg) was determined. Blood glucose levels were assessed in the whole blood collected from the tail vein, 60 min after drug administration Immediately following this glucose measurement, all mice were subjected to a glucose tolerance test by receiving an intraperitoneal challenge injection of 2 g/kg of glucose, and blood glucose levels were measured at 0, 30, 60 and 120 minutes.
Mice used in this study were randomly assigned into one of the six following groups: • Group 1: Vehicle control • Group 2: Clz (10 mg/kg) • Group 3: Clz (10 mg/kg)+enriched TA (22.5 mg/kg) • Group 4: Clz (10 mg/kg)+enriched TA (11.3 mg/kg) • Group 5: Clz:enriched TA 2:1 salt (32.5 mg/kg) • Group 6: Clz:enriched TA 4:1 salt (21.3 mg/kg)
One day before the glucose tolerance test, the mice fasted overnight and the blood glucose levels were measured in whole blood collected from the tail vein. Glucose levels were measured using a portable glucose meter (Contour® Plus, Bayer AG, Leverkusen, Germany) 60 min after they were acutely administered with the treatments indicated above Immediately following this glucose measurement, all mice were subjected to a glucose tolerance test by receiving an intraperitoneal challenge injection of 2 g/kg of glucose. Blood glucose levels were measured at 30, 60 and 120 minutes.
Two cohorts of mice were used in this study. […]

[4] = mouse, in vivo, ip, 10 mg/kg
Procedure: The testing compounds were administered to mice either through intraperitoneal (i.p.) injection or oral gavage before analyzing blood glucose levels.
For the acute study, two cohorts of mice were used.
For repeated-dose study, mice were randomly assigned into five groups as listed below. • Group 1: Vehicle control • Group 2: Clz (3 mg/kg) • Group 3: Clz:NA 1:1 salt (4.13 mg/kg) • Group 4: Clz (10 mg/kg) • Group 5: Clz:NA 1:1 salt (13.77 mg/kg)
The night before blood glucose levels were measured, the mice were fasted. Blood glucose levels were measured with a portable glucose meter (Contour® Plus, Bayer AG, Leverkusen, Germany) After waiting for 60 min, the treatments indicated above were administered. FIG. 75 illustrates the experimental design of this study.
Two cohorts of mice were used in this study. In cohort 1, mice were randomly assigned into the five groups listed below: • Group 1: Vehicle control • Group 2: NA (3.94 mg/kg) • Group 3: Olz (10 mg/kg) • Group 4: Olz (10 mg/kg)+NA (3.94 mg/kg) • Group 5: Olz:NA 1:1 salt (13.94 mg/kg)
Dosing occurred 60 min prior to measuring blood glucose levels.
In cohort 2, mice were randomly assigned into the five groups listed below: • Group 1: Vehicle control • Group 2: Olz (5 mg/kg) • Group 3: Olz:NA 1:1 salt (6.97 mg/kg) • Group 4: Olz (10 mg/kg) • Group 5: Olz:NA 1:1 salt (13.94 mg/kg)
The night before the glucose tolerance test, the mice fasted. Blood glucose levels were measured in whole blood that was collected from the mouse's tail vein. Glucose levels were measured with a portable glucose meter (Contour® Plus, Bayer AG, Leverkusen, Germany), with the measurement occurring 60 min after the mice were dosed with the treatments indicated above Immediately following the glucose measurement, all mice were subjected to a glucose tolerance test, which involved an intraperitoneal challenge injection of 1 g/kg of glucose, followed by measuring blood glucose levels at 0, 30, 60 and 120 minutes.

[5] = risperidone 10 mg/kg as printed in Table 29
[6] = oral risperidone 0.06 mg/kg or nicotinic acid salt 0.078 mg/kg
[7] = oral quetiapine 10 mg/kg or nicotinic acid salt […]
[8] = MK801 model, dosage of clozapine 1 mg/kg
[9] = MK801 model, dosage of clozapine 2 mg/kg
[10] = paliperidone 0.06 mg/kg (benzoic acid salt study)
[11] = oral paliperidone 0.06 mg/kg or benzoic acid salt 0.076 mg/kg
[12] = paliperidone 0.06 mg/kg (nicotinic acid salt study)
[13] = oral paliperidone 0.06 mg/kg or nicotinic acid 1:2 salt 0.094 mg/kg

In the case of `Cc1nc2n(c(=O)c1CCN1CCC(c3noc4cc(F)ccc34)CC1)CCCC2.O=C(O)c1cccnc1` [risperidone:nicotinic acid 1:1 salt, resperidone:nicotinic acid 1:1 salt], the water solubility [1] is reported as 2170.77 mg/mL, the “Open-field test effect (formula [formula] not readable)” value (MK-801 treated mice; [5]) is reported as 80.1% and the “locomotor activity in MK-801 treated mice” value (from here on “locomotor activity”) (MK-801 treated mice; [6]) is reported as “higher potency to MK-801-induced hyperactivity”.

In the case of `OCCOCCN1CCN(C2=Nc3ccccc3Sc3ccccc32)CC1` [quetiapine, reference compound], the “Open-field test effect (formula [formula] not readable)” value (MK-801 treated mice; quetiapine 10 mg/kg) is reported as 8.7% and the “locomotor activity” value (MK-801 treated mice; [7]) is reported as “alleviates MK-801 induced hyperactivity”.

For `CN1CCN(C2=Nc3cc(Cl)ccc3Nc3ccccc32)CC1` [clozapine, reference compound], the AUC (in vivo; male, Sprague-Dawley, 60 mg/kg) was 1320 ng·h/mL, the “AUC Increased (%)” value (in vivo; male, Sprague-Dawley, 60 mg/kg) was 100% and the Tmax (in vivo; male, Sprague-Dawley, 60 mg/kg) was 1 h. For the same compound, the half-life (in vivo; male, Sprague-Dawley, 60 mg/kg) was 5.6 ± 1.7 h, the solubility [1] was 0.18 mg/mL (≈ 551 µM) and the “Recovery rate (%)” value (MK-801 treated mice; MK801-treated mice, dosage of clozapine 1 mg/kg (benzoic acid salt study)) was 65.1%. The “Recovery rate (%)” value (MK-801 treated mice; [8]) was 57%, the “Recovery rate (%)” value (MK-801 treated mice; [9]) was 79% and the “Open-field test, anti-hyperactivity effect (formula [formula] not readable)” value (MK-801 treated mice; clozapine 1 mg/kg) was 18.77%.

For `NCC1(CC(=O)O)CCCCC1` [gabapentin, reference compound], the “paw withdrawal threshold compared to vehicle control group” value (mice) was “no difference from control group at any time point examined”, the “AUC values of von Frey pain threshold compared to vehicle control group” value (“AUC values … compared to vehicle control group” for short) (mice) was “little to no effect” and the “Pain threshold to time AUC after 120 min” value (mice) was 1.28.

For `O=C(O)c1cccnc1.OCCOCCN1CCN(C2=Nc3ccccc3Sc3ccccc32)CC1` [quetiapine:nicotinic acid 1:1 salt], the “Carr Index” value [2] was 20%, the “Blood glucose level compared to vehicle after 120 min” value [3] was 1.00 and the water solubility [1] was 262 mg/mL. The “Open-field test effect (formula [formula] not readable)” value (MK-801 treated mice; quetiapine 10 mg/kg) was 53.1% and the “locomotor activity” value (MK-801 treated mice; [7]) was “significant decrease in locomotion activity, compared with quetiapine group”.

For “gabapentin:enriched tannic acid 1:1 salt”, the “paw withdrawal threshold compared to vehicle control group” value (mice) was “significantly higher at 60 and 120 min”, the “AUC values … compared to vehicle control group” value (mice) was “significantly higher” and the “AUC of von Frey pain threshold relative to gabapentin group” value (mice) was “about twice as high as in gabapentin group”.

With “gabapentin:enriched tannic acid 2:1 salt” the “paw withdrawal threshold compared to vehicle control group” value (mice) was “significantly higher at 30 min”.

With “gabapentin:enriched tannic acid 3:1 salt” the “paw withdrawal threshold compared to vehicle control group” value (mice) was “significantly higher at 30, 60 and 120 min after administration”, the “AUC values … compared to vehicle control group” value (mice) was “significantly higher” and the “AUC of von Frey pain threshold relative to gabapentin group” value (mice) was “about twice as high as in gabapentin group”. The “Pain threshold to time AUC after 120 min” value (mice) was 2.80.

In the case of `Cc1nc2n(c(=O)c1CCN1CCC(c3noc4cc(F)ccc34)CC1)CCCC2O.O=C(O)c1ccccc1` (stereo not drawn) [paliperidone:benzoic acid 1:1 salt, Paliperidone:Benzoic Acid 1:1 Salt], the “Carr Index” value [2] is reported as 13%, the water solubility [1] is reported as 10.4 mg/mL and the “Open-field test effect (formula [formula] not readable)” value (MK-801 treated mice; [10]) is reported as 85.0%. For the same compound, the “locomotor activity” value (MK-801 treated mice; [11]) was “significant decrease in locomotion activity, compared with paliperidone group”.

In the case of `O=C(O)/C=C/C(=O)O.OCCOCCN1CCN(C2=Nc3ccccc3Sc3ccccc32)CC1` [quetiapine:fumaric acid 1:1 salt, reference compound], the “Carr Index” value [2] is reported as 33%.

For `CN1CCN(C2=Nc3cc(Cl)ccc3Nc3ccccc32)CC1.O=C(O)c1cccnc1` [clozapine:nicotinic acid 1:1 salt], the T1/2 (in vivo) was 3.2 ± 1.4 h, the Tmax (in vivo) was 0.8 h and the “AUC Increased (%)” value (in vivo; 60 mg/kg) was 161.8%. The “reduction of clozapine-induced hyperglycemia” value [4] was 46.8%, the “Recovery rate (%)” value (MK-801 treated mice; [8]) was 86% and the “Recovery rate (%)” value (MK-801 treated mice; [9]) was 100%.

For `Cc1cc2c(s1)Nc1ccccc1N=C2N1CCN(C)CC1` [olanzapine, reference compound], the “Recovery rate (%)” value (MK-801 treated mice; MK801-treated mice, dosage of olanzapine 0.1 mg/kg) was 36.8%, the “Open-field test effect (formula [formula] not readable)” value (MK-801 treated mice; olanzapine 0.5 mg/kg) was 85.8% and the “Open-field test, anti-hyperactivity effect (formula [formula] not readable)” value (MK-801 treated mice; olanzapine 0.5 mg/kg) was 30.53%.

In the case of `Cc1nc2n(c(=O)c1CCN1CCC(c3noc4cc(F)ccc34)CC1)CCCC2O.O=C(O)c1cccnc1.O=C(O)c1cccnc1` (stereo not drawn) [paliperidone:nicotinic acid 1:2 salt], the “Carr Index” value [2] is reported as 29%, the water solubility [1] is reported as 137.3 mg/mL and the “Open-field test effect (formula [formula] not readable)” value (MK-801 treated mice; [12]) is reported as 89.7%. The “locomotor activity” value (MK-801 treated mice; [13]) was “significant decreases in locomotion activity, compared with paliperidone group”.

In the case of `Cc1nc2n(c(=O)c1CCN1CCC(c3noc4cc(F)ccc34)CC1)CCCC2O` (stereo not drawn) [paliperidone, reference compound], the “Carr Index” value [2] is reported as 29%, the solubility [1] is reported as 0.29 mg/mL (≈ 680 µM) and the “Open-field test effect (formula [formula] not readable)” value (MK-801 treated mice; [10]) is reported as 50.3%. The “Open-field test effect (formula [formula] not readable)” value (MK-801 treated mice; [12]) was 50.3%, the “locomotor activity” value (MK-801 treated mice; [11]) was “alleviates MK-801 induced hyperactivity” and the “locomotor activity” value (MK-801 treated mice; [13]) was “alleviates MK-801 induced hyperactivity”.

For `Cc1nc2n(c(=O)c1CCN1CCC(c3noc4cc(F)ccc34)CC1)CCCC2` [risperidone, reference compound], the solubility [1] was < 0.005 mg/mL, the “Open-field test effect (formula [formula] not readable)” value (MK-801 treated mice; [5]) was 48.7% and the “locomotor activity” value (MK-801 treated mice; [6]) was “alleviates MK-801 induced hyperactivity”.

With olanzapine:pantothenic acid 5:1 salt the “Open-field test effect (formula [formula] not readable)” value (MK-801 treated mice; olanzapine 0.5 mg/kg) was 101.0% and the “locomotor activity” value (MK-801 treated mice; oral olanzapine 0.5 mg/kg or 5:1 salt 0.547 mg/kg) was “higher potency to MK-801-induced hyperactivity”.

For “olanzapine:enriched tannic acid 2:1 salt”, the “Open-field test, anti-hyperactivity effect (formula [formula] not readable)” value (MK-801 treated mice; olanzapine 0.5 mg/kg) was 112.82%.
